Source: patent US12102615B2 (THE TEXAS A&M UNIVERSITY SYSTEM, priority 2018, dated 2024)
≈ marks a conversion by molar mass, not a printed value. Like-named read-outs stand apart in the source and are kept apart here. Numbered stars: 1 amine (or outer) side, 2 acyl side, 3 side chain; on linkers, the order of the positions; unused ones are H or OH. Square brackets hold non-standard residues; d marks the D form. Peptide text beside a SMILES is read from it. dTyr(βR-OH) = N[C@@H](C(=O)O)[C@H](O)c1ccc(O)cc1; X1 = CCCCCCCCCCCCNCC[C@H](CC(=O)[*:2])N[*:1]; Asn(3S-OH) = NC(=O)[C@@H](O)[C@H](N)C(=O)O; dDab = NCC[C@@H](N)C(=O)O

How the values were obtained:
[1] = tested on: Fluconazole resistant C. albicans and C. glabrata; assay: MIC against fluconazole resistant isolates; format: cell-based
Experimental: (§1) Minimum inhibitory concentration (MIC) susceptibility testing was performed according to the CLSI M27-A3 and M38-A2 standards for the susceptibility testing of yeasts and filamentous fungi, respectively. Incubation temperature was at 35° C. and the inoculum size was 0.5-2.5×10^3 colony-forming units (CFU)/mL and 0.4-5×10^4 conidia/mL for yeasts and filamentous fungi, respectively. Inoculum concentration for dermatophytes was 1-3×10^3 conidia/mL. RPMI was used throughout as the growth medium and Cryptococcus strains were tested in YNB. […] Voriconazole MICs were recorded at 80% inhibition after 96 hours of incubation for dermatophytes. S. cerevisiae deletion mutants were obtained from the commercially available BY4741 deletion library (Thermo Scientific). Susceptibility testing was carried out on inoculum size of 0.5-1×10^4 cells/ml in YPD media at 30° C. and MICs recorded after 48 and 60 hours.

[2] = tested on: Trichophyton mentagrophytes 10207; assay: MIC susceptibility testing (CLSI M38-A2); format: cell-based
Experimental: as §1

[3] = tested on: Trichophyton mentagrophytes 28556; assay: MIC susceptibility testing (CLSI M38-A2); format: cell-based
Experimental: as §1

[4] = tested on: Trichophyton mentagrophytes 28641; assay: MIC susceptibility testing (CLSI M38-A2); format: cell-based
Experimental: as §1

[5] = tested on: Trichophyton rubrum 11199; assay: MIC susceptibility testing (CLSI M38-A2); format: cell-based
Experimental: as §1

[6] = tested on: Trichophyton rubrum 28658; assay: MIC susceptibility testing (CLSI M38-A2); format: cell-based
Experimental: as §1

[7] = tested on: Trichophyton rubrum 28659; assay: MIC susceptibility testing (CLSI M38-A2); format: cell-based
Experimental: as §1

Candida albicans 23512 = assay: MIC susceptibility testing (CLSI M27-A3); format: cell-based; settings: Candida albicans, 23512, 24 h, read-out: Fluconazole MIC
Experimental: as §1

Candida albicans 28102 = assay: MIC susceptibility testing (CLSI M27-A3); format: cell-based; settings: Candida albicans, 28102, 24 h, read-out: Fluconazole MIC
Experimental: as §1

Candida albicans 28200 = assay: MIC susceptibility testing (CLSI M27-A3); format: cell-based; settings: Candida albicans, 28200, 24 h, read-out: Fluconazole MIC
Experimental: as §1

Candida glabrata 25742 = assay: MIC susceptibility testing (CLSI M27-A3); format: cell-based; settings: Nakaseomyces glabratus, 25742, 24 h, read-out: Fluconazole MIC
Experimental: as §1

Candida glabrata 27243 = assay: MIC susceptibility testing (CLSI M27-A3); format: cell-based; settings: Nakaseomyces glabratus, 27243, 24 h, read-out: Fluconazole MIC
Experimental: as §1

Candida glabrata 28271 = assay: MIC susceptibility testing (CLSI M27-A3); format: cell-based; settings: Nakaseomyces glabratus, 28271, 24 h, read-out: Fluconazole MIC
Experimental: as §1

Candida krusei 28415 = assay: MIC susceptibility testing (CLSI M27-A3); format: cell-based; settings: Pichia kudriavzevii, 28415, 24 h, read-out: Fluconazole MIC
Experimental: as §1

Candida krusei 28570 = assay: MIC susceptibility testing (CLSI M27-A3); format: cell-based; settings: Pichia kudriavzevii, 28570, 24 h, read-out: Fluconazole MIC
Experimental: as §1

Candida krusei 9541 = assay: MIC susceptibility testing (CLSI M27-A3); format: cell-based; settings: Pichia kudriavzevii, 9541, 24 h, read-out: Fluconazole MIC
Experimental: as §1

[8] = tested on: Candida parapsilosis 2006; assay: MIC susceptibility testing (CLSI M27-A3); format: cell-based; settings: Lodderomyces parapsilosis, 2006, 24 h, read-out: Fluconazole MIC
Experimental: as §1

[9] = tested on: Candida parapsilosis 28174; assay: MIC susceptibility testing (CLSI M27-A3); format: cell-based; settings: Lodderomyces parapsilosis, 28174, 24 h, read-out: Fluconazole MIC
Experimental: as §1

[10] = tested on: Candida parapsilosis 28364; assay: MIC susceptibility testing (CLSI M27-A3); format: cell-based; settings: Lodderomyces parapsilosis, 28364, 24 h, read-out: Fluconazole MIC
Experimental: as §1

Candida tropicalis 28272 = assay: MIC susceptibility testing (CLSI M27-A3); format: cell-based; settings: Candida tropicalis, 28272, 24 h, read-out: Fluconazole MIC
Experimental: as §1

Candida tropicalis 28478 = assay: MIC susceptibility testing (CLSI M27-A3); format: cell-based; settings: Candida tropicalis, 28478, 24 h, read-out: Fluconazole MIC
Experimental: as §1

Candida tropicalis 9624 = assay: MIC susceptibility testing (CLSI M27-A3); format: cell-based; settings: Candida tropicalis, 9624, 24 h, read-out: Fluconazole MIC
Experimental: as §1

[11] = tested on: Cryptococcus neoformans 19526; assay: MIC susceptibility testing (CLSI M27-A3); format: cell-based; settings: Cryptococcus neoformans, 19526, 72 h, read-out: Fluconazole MIC
Experimental: as §1

[12] = tested on: Cryptococcus neoformans 27708; assay: MIC susceptibility testing (CLSI M27-A3); format: cell-based; settings: Cryptococcus neoformans, 27708, 72 h, read-out: Fluconazole MIC
Experimental: as §1

[13] = tested on: Cryptococcus neoformans 28446; assay: MIC susceptibility testing (CLSI M27-A3); format: cell-based; settings: Cryptococcus neoformans, 28446, 72 h, read-out: Fluconazole MIC
Experimental: as §1

[14] = tested on: S. cerevisiae DGY6 haploid BY4741; format: cell-based; settings: Saccharomyces cerevisiae DGY6 haploid BY4741; 24 hours, 35° C.
Experimental: MIC assays were performed in duplicate as previously described following a modified version of the CLSI M27-A3 methods.
Minimum inhibitory concentration (MIC) susceptibility testing was performed following a modified version, as previously reported, of the CLSI M27-A3 methods for the susceptibility testing of yeasts. Incubation temperature was 35° C. and the inoculum size was 0.5-2.5×10^3 colony-forming units (CFU)/mL for yeasts. MICs were performed to determine the bioactivity of each new OF-Δxyl analogue (Table 3).

F-actin = F-actin (Oryctolagus cuniculus, UniProt P68135); assay: Actin co-sedimentation assay; format: binding, rabbit; set-up: Purified rabbit skeletal muscle filamentous actin (AKF99); purchased Cytoskeleton Inc. (Denver, CO) AKF99; host or cells: rabbit skeletal muscle
Aspergillus flavus 28445 = assay: MIC susceptibility testing (CLSI M38-A2); format: cell-based; settings: Aspergillus flavus, 28445, 48 h, read-out: Voriconazole MIC
Experimental: as §1

Aspergillus flavus 28455 = assay: MIC susceptibility testing (CLSI M38-A2); format: cell-based; settings: Aspergillus flavus, 28455, 48 h, read-out: Voriconazole MIC
Experimental: as §1

Aspergillus flavus 28517 = assay: MIC susceptibility testing (CLSI M38-A2); format: cell-based; settings: Aspergillus flavus, 28517, 48 h, read-out: Voriconazole MIC
Experimental: as §1

[15] = tested on: Aspergillus fumigatus 28434; assay: MIC susceptibility testing (CLSI M38-A2); format: cell-based; settings: Aspergillus fumigatus, 28434, 48 h, read-out: Voriconazole MIC
Experimental: as §1

[16] = tested on: Aspergillus fumigatus 28435; assay: MIC susceptibility testing (CLSI M38-A2); format: cell-based; settings: Aspergillus fumigatus, 28435, 48 h, read-out: Voriconazole MIC
Experimental: as §1

[17] = tested on: Aspergillus fumigatus 28436; assay: MIC susceptibility testing (CLSI M38-A2); format: cell-based; settings: Aspergillus fumigatus, 28436, 48 h, read-out: Voriconazole MIC
Experimental: as §1

Fusarium oxysporum 27718 = assay: MIC susceptibility testing (CLSI M38-A2); format: cell-based; settings: Fusarium oxysporum, 27718, 48 h, read-out: Voriconazole MIC
Experimental: as §1

Fusarium solani 18749 = assay: MIC susceptibility testing (CLSI M38-A2); format: cell-based; settings: Fusarium solani, 18749, 48 h, read-out: Voriconazole MIC
Experimental: as §1

Fusarium solani 28386 = assay: MIC susceptibility testing (CLSI M38-A2); format: cell-based; settings: Fusarium solani, 28386, 48 h, read-out: Voriconazole MIC
Experimental: as §1

[18] = tested on: Mucor circinelloides 19445; assay: MIC susceptibility testing (CLSI M38-A2); format: cell-based; settings: Mucor circinelloides, 19445, 24 h, read-out: Voriconazole MIC
Experimental: as §1

Mucor fragdis 27782 = assay: MIC susceptibility testing (CLSI M38-A2); format: cell-based; settings: Mucor, 27782, 24 h, read-out: Voriconazole MIC
Experimental: as §1

Mucor racemosus 27784 = assay: MIC susceptibility testing (CLSI M38-A2); format: cell-based; settings: Mucor racemosus, 27784, 24 h, read-out: Voriconazole MIC
Experimental: as §1

[19] = tested on: Rhizopus microsporus 27785; assay: MIC susceptibility testing (CLSI M38-A2); format: cell-based; settings: Rhizopus microsporus, 27785, 24 h, read-out: Voriconazole MIC
Experimental: as §1

[20] = tested on: Rhizopus microsporus 28506; assay: MIC susceptibility testing (CLSI M38-A2); format: cell-based; settings: Rhizopus microsporus, 28506, 24 h, read-out: Voriconazole MIC
Experimental: as §1

Rhizopus oryzae 28403 = assay: MIC susceptibility testing (CLSI M38-A2); format: cell-based; settings: Rhizopus arrhizus, 28403, 24 h, read-out: Voriconazole MIC
Experimental: as §1

## OC(Cn1cncn1)(Cn1cncn1)c1ccc(F)cc1F [Fluconazole]
[1]
  MIC / inhibitory concentrations: ≥ 32 µg/mL
[2]; Trichophyton mentagrophytes, 10207, read-out: Fluconazole MIC
  MIC: > 16 µg/mL
[3]; Trichophyton mentagrophytes, 28556, read-out: Fluconazole MIC
  MIC: > 16 µg/mL
[4]; Trichophyton mentagrophytes, 28641, read-out: Fluconazole MIC
  MIC: 16 µg/mL (≈ 52.2 µM)
[5]; Trichophyton rubrum, 11199, read-out: Fluconazole MIC
  MIC: 0.25 µg/mL (≈ 0.816 µM)
[6]; Trichophyton rubrum, 28658, read-out: Fluconazole MIC
  MIC: 2 µg/mL (≈ 6.53 µM)
[7]; Trichophyton rubrum, 28659, read-out: Fluconazole MIC
  MIC: 2 µg/mL (≈ 6.53 µM)
Candida albicans 23512
  MIC: 32 µg/mL (≈ 104 µM)
Candida albicans 28102
  MIC: 0.125 µg/mL (≈ 0.408 µM)
Candida albicans 28200
  MIC: 8 µg/mL (≈ 26.1 µM)
Candida glabrata 25742
  MIC: 4 µg/mL (≈ 13.1 µM)
Candida glabrata 27243
  MIC: 64 µg/mL (≈ 209 µM)
Candida glabrata 28271
  MIC: > 64 µg/mL
Candida krusei 28415
  MIC: 64 µg/mL (≈ 209 µM)
Candida krusei 28570
  MIC: 16 µg/mL (≈ 52.2 µM)
Candida krusei 9541
  MIC: 16 µg/mL (≈ 52.2 µM)
[8]
  MIC: 0.125 µg/mL (≈ 0.408 µM)
[9]
  MIC: 0.25 µg/mL (≈ 0.816 µM)
[10]
  MIC: 0.25 µg/mL (≈ 0.816 µM)
Candida tropicalis 28272
  MIC: 0.125 µg/mL (≈ 0.408 µM)
Candida tropicalis 28478
  MIC: 0.125 µg/mL (≈ 0.408 µM)
Candida tropicalis 9624
  MIC: 0.25 µg/mL (≈ 0.816 µM)
[11]
  MIC: 4 µg/mL (≈ 13.1 µM)
[12]
  MIC: 2 µg/mL (≈ 6.53 µM)
[13]
  MIC: 4 µg/mL (≈ 13.1 µM)

## CCCCCCCCCCCCNCC[C@@H]1CC(=O)N[C@H](CO)C(=O)N[C@H]([C@H](O)c2ccc(O)cc2)C(=O)N[C@H](CCN)C(=O)NCC(=O)N[C@@H](CC(N)=O)C(=O)N[C@@H](CO)C(=O)N[C@@H]([C@H](O)C(N)=O)C(=O)N1 [Dodecylamine containing OF-Δxyl analogue] (cyclo(GNS[Asn(3S-OH)][X1][dS][dTyr(βR-OH)][dDab]))
[14]
  MIC: >4 µg/mL
F-actin
  Kd: 4.2 µM
F-actin; versus native occidiofungin
  fold lower binding affinity to actin than native compound: ~4 fold

## C[C@@H](c1ncncc1F)[C@](O)(Cn1cncn1)c1ccc(F)cc1F [Voriconazole]
Aspergillus flavus 28445
  MIC: 2 µg/mL (≈ 5.73 µM)
Aspergillus flavus 28455
  MIC: 2 µg/mL (≈ 5.73 µM)
Aspergillus flavus 28517
  MIC: 1 µg/mL (≈ 2.86 µM)
[15]
  MIC: 1 µg/mL (≈ 2.86 µM)
[16]
  MIC: 1 µg/mL (≈ 2.86 µM)
[17]
  MIC: 1 µg/mL (≈ 2.86 µM)
Fusarium oxysporum 27718
  MIC: > 16 µg/mL
Fusarium solani 18749
  MIC: > 16 µg/mL
Fusarium solani 28386
  MIC: > 16 µg/mL
[18]
  MIC: > 16 µg/mL
Mucor fragdis 27782
  MIC: > 16 µg/mL
Mucor racemosus 27784
  MIC: > 16 µg/mL
[19]
  MIC: > 16 µg/mL
[20]
  MIC: 16 µg/mL (≈ 45.8 µM)
Rhizopus oryzae 28403
  MIC: > 16 µg/mL
[2]; Trichophyton mentagrophytes, 10207, 96 h, read-out: Voriconazole MIC
  MIC: 0.25 µg/mL (≈ 0.716 µM)
[3]; Trichophyton mentagrophytes, 28556, 96 h, read-out: Voriconazole MIC
  MIC: 0.06 µg/mL (≈ 0.172 µM)
[4]; Trichophyton mentagrophytes, 28641, 96 h, read-out: Voriconazole MIC
  MIC: 0.06 µg/mL (≈ 0.172 µM)
[5]; Trichophyton rubrum, 11199, 96 h, read-out: Voriconazole MIC
  MIC: 0.008 µg/mL (≈ 0.0229 µM)
[6]; Trichophyton rubrum, 28658, 96 h, read-out: Voriconazole MIC
  MIC: 0.03 µg/mL (≈ 0.0859 µM)
[7]; Trichophyton rubrum, 28659, 96 h, read-out: Voriconazole MIC
  MIC: 0.03 µg/mL (≈ 0.0859 µM)
